Data reported in patent publication US20260226034A1 (The Rockefeller University, priority 2023, published 2026).

Target: NSP14 (Severe acute respiratory syndrome coronavirus 2, UniProt P0DTD1)
Test: NSP14 MTase inhibition assay at 37° C. (MTase-Glo SAH detection)
Format: biochemical, SARS-CoV-2
Settings: 37° C., 0.3 nM NSP14, 2.5 μM SAM, 2.5 μM GpppA RNA; read-out: Nsp14 Mtase Inh. IC50

SMILES	IC50
Cc1c(S(=O)(=O)c2ccc3[nH]ncc3c2)cc(C(=O)NCc2cncn2C)n1C [B.146]	29 nM
Cc1cc(CNC(=O)c2cc(S(=O)(=O)c3ccc4[nH]ncc4c3)c(C)n2C)n(C)n1 [B.147]	145 nM
Cc1c(S(=O)(=O)c2ccc3[nH]ncc3c2)cc(C(=O)NCc2cccn3ncnc23)n1C [B.148]	7.4 nM
Cc1c(S(=O)(=O)c2ccc3[nH]ncc3c2)cc(C(=O)NCc2ccc3ncnn3c2)n1C [B.149]	18 nM
Cc1ncoc1CNC(=O)c1cc(S(=O)(=O)c2ccc3[nH]ncc3c2)c(C)n1C [B.150]	14 nM
O=C(O)CCn1ncc2ccc(F)c(CNC(=O)c3cc(S(=O)(=O)c4cc(Cl)c5[nH]ncc5c4)c4n3CCC4)c21 [B.151]	< 0.15 nM
Cc1nn(C)cc1CNC(=O)c1cc(S(=O)(=O)c2ccc3[nH]ncc3c2)c(C)n1C [B.152]	20 nM
Cc1c(S(=O)(=O)c2cc(Cl)c3[nH]ncc3c2)cc(C(=O)NCc2c(F)ccc3nnn(C4CC4)c23)n1C [B.153]	< 0.15 nM
Cc1c(S(=O)(=O)c2ccc3[nH]ncc3c2)cc(C(=O)NCc2c(F)cnn2C)n1C [B.154]	0.56 nM
Cc1c(S(=O)(=O)c2ccc3[nH]ncc3c2)cc(C(=O)NCc2c[nH]c(=O)c3ncccc23)n1C [B.155]	0.3 nM
Cc1c(S(=O)(=O)c2ccc3[nH]ncc3c2)cc(C(=O)NCc2cn(C)c(=O)cn2)n1C [B.156]	6 nM
Cc1c(S(=O)(=O)c2ccc3[nH]ncc3c2)cc(C(=O)NCc2c[nH]c(=O)c3cccnc23)n1C [B.159]	0.43 nM
Cc1c(S(=O)(=O)c2ccc3[nH]ncc3c2)cc(C(=O)NCc2ccn(C(F)F)n2)n1C [B.160]	149 nM
Cc1cc(C)c(CNC(=O)c2cc(S(=O)(=O)c3ccc4[nH]ncc4c3)c(C)n2C)c(=O)[nH]1 [B.161]	2.7 nM
Cc1c(S(=O)(=O)c2ccc3[nH]ncc3c2)cc(C(=O)NCc2ccnn2CC(F)F)n1C [B.162]	2.2 nM
Cc1c(S(=O)(=O)c2ccc3[nH]ncc3c2)cc(C(=O)NCc2cnn3ccccc23)n1C [B.163]	3 nM

SMILES	IC50
Cc1cc(C)n(C)c(=O)c1CNC(=O)c1cc(S(=O)(=O)c2ccc3[nH]ncc3c2)c(C)n1C [B.164]	0.85 nM
Cc1c(S(=O)(=O)c2ccc3[nH]ncc3c2)cc(C(=O)NCc2ccnn2C(F)F)n1C [B.165]	14 nM
CCn1nccc1CNC(=O)c1cc(S(=O)(=O)c2ccc3[nH]ncc3c2)c(C)n1C [B.166]	0.95 nM
Cc1c(S(=O)(=O)c2ccc3[nH]ncc3c2)cc(C(=O)NCc2ccnn2C2CC2)n1C [B.167]	7.8 nM
Cc1c(S(=O)(=O)c2ccc3[nH]ncc3c2)cc(C(=O)NCc2ccn(C3CC3)n2)n1C [B.168]	172 nM
Cc1c(S(=O)(=O)c2ccc3[nH]ncc3c2)cc(C(=O)NC(=O)c2ccccc2)n1C [B.169]	3.2 nM
Cc1c(S(=O)(=O)c2ccc3[nH]ncc3c2)cc(C(=O)NCc2c(Cl)ccc(=O)n2C)n1C [B.174]	0.7 nM
Cc1c(S(=O)(=O)c2ccc3[nH]nc(F)c3c2)cc(C(=O)NCc2c[nH]c(=O)c3cccnc23)n1C [B.175]	3.3 nM
COc1ccc(CNC(=O)c2cc(S(=O)(=O)c3ccc4[nH]nc(F)c4c3)c(C)n2C)c(C(F)(F)F)n1 [B.176]	7 nM
Cc1c(S(=O)(=O)c2ccc3[nH]ncc3c2)cc(C(=O)NCc2ccc(=O)n(C)c2)n1C [B.177]	138 nM
Cc1c(S(=O)(=O)c2ccc3[nH]ncc3c2)cc(C(=O)NCc2c(F)ccc(=O)n2C)n1C [B.179]	< 0.15 nM
Cc1c(S(=O)(=O)c2ccc3[nH]ncc3c2)cc(C(=O)NCc2c(Cl)ccn(C)c2=O)n1C [B.180]	< 0.15 nM
Cc1c(S(=O)(=O)c2ccc3[nH]ncc3c2)cc(C(=O)NCc2c(F)ccn(C)c2=O)n1C [B.181]	0.23 nM
Cc1c(S(=O)(=O)c2ccc3c(cnn3C)c2)cc(C(=O)NCc2c(F)ccnc2N2CCC(C(=O)NS(C)(=O)=O)C2)n1C (centres unmarked) [B.182]	< 0.15 nM
Cc1c(S(=O)(=O)c2cccc(C#N)c2)cc(C(=O)NCc2c(Cl)cnn2C)n1C [B.183]	17 nM
Cc1c(S(=O)(=O)c2cc(Cl)c3[nH]ncc3c2)cc(C(=O)NCc2c(Cl)cnn2C)n1C [B.184]	< 0.15 nM
